Experimental data as given in ChEMBL document CHEMBL1201862, “PubChem BioAssay data set” (2004).
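Interpolation was linear, between the two tested concentrations surrounding the appropriate level; five concentrations were tested over 48 hours in 96-well plates. GI50 = concentration required for 50% inhibition of growth.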 Activity calls are given as the source filed them. No stated cut-off is given here; in the data, active = GI50 up to about 1.1 µM and inactive = higher.

Tests used:
Assay in all cases: DTP human tumour cell line panel, 48 h
ACHN = test system: ACHN
CAKI-1 = test system: CAKI-1
HCT-116 = test system: HCT-116
MOLT-4 = test system: MOLT-4
Malme-3M = test system: Malme-3M
NCI-H23 = test system: NCI-H23
NCI-H522 = test system: NCI-H522
OVCAR-3 = test system: OVCAR-3
OVCAR-4 = test system: OVCAR-4
OVCAR-5 = test system: OVCAR-5
RPMI-8226 = test system: RPMI-8226
SK-MEL-2 = test system: SK-MEL-2
SNB-19 = test system: SNB-19
TK-10 = test system: TK-10
UACC-257 = test system: UACC-257
A498 = test system: A498

Measured: GI50

COc1ccc(OC)c(-c2cc(O)c3cc4c(cc3n2)OCO4)c1
inactive: ACHN 6.58 µM | CAKI-1 4.12 µM | HCT-116 4.14 µM | MOLT-4 6.34 µM | Malme-3M 3.49 µM | NCI-H23 3.44 µM | NCI-H522 2.85 µM | OVCAR-3 3.93 µM | OVCAR-4 35.6 µM | OVCAR-5 8.53 µM | RPMI-8226 4.18 µM | SK-MEL-2 4.1 µM | SNB-19 18.5 µM | TK-10 11 µM | UACC-257 7.69 µM

O=C(c1ccccc1)N1C2CCC1C(C(F)(F)F)=C2C(F)(F)F
inactive: A498 > 100 µM | CAKI-1 > 100 µM | HCT-116 > 100 µM | MOLT-4 > 100 µM | Malme-3M > 100 µM | NCI-H23 > 100 µM | NCI-H522 > 100 µM | OVCAR-3 > 100 µM | OVCAR-4 > 100 µM | OVCAR-5 > 100 µM | RPMI-8226 > 100 µM | SNB-19 > 100 µM | TK-10 > 100 µM | UACC-257 > 100 µM

Cc1cnc2ccc(C)c([N+](=O)[O-])c2c1NCCCN(C)C
inactive: ACHN > 100 µM | CAKI-1 > 100 µM | HCT-116 74.8 µM | MOLT-4 > 100 µM | Malme-3M > 100 µM | NCI-H23 > 100 µM | NCI-H522 > 100 µM | OVCAR-3 > 100 µM | OVCAR-4 > 100 µM | OVCAR-5 > 100 µM | RPMI-8226 > 100 µM | SK-MEL-2 > 100 µM | SNB-19 > 100 µM | TK-10 > 100 µM | UACC-257 > 100 µM

Cc1cc(N(CCC#N)CCC#N)ccc1/N=N/c1ccccc1[N+](=O)[O-]
inactive: A498 > 100 µM | ACHN > 100 µM | CAKI-1 > 100 µM | MOLT-4 > 100 µM | Malme-3M > 100 µM | NCI-H23 > 100 µM | NCI-H522 > 100 µM | OVCAR-3 > 100 µM | OVCAR-4 > 100 µM | OVCAR-5 > 100 µM | SK-MEL-2 > 100 µM | TK-10 > 100 µM | UACC-257 > 100 µM

CCc1cc(Cc2cc(CC)c(NC(=O)C(=O)Cc3ccccn3)c(CC)c2Cl)c(Cl)c(CC)c1NC(=O)C(=O)Cc1ccccn1
inactive: A498 > 100 µM | ACHN > 100 µM | CAKI-1 > 100 µM | HCT-116 > 100 µM | MOLT-4 > 100 µM | Malme-3M > 100 µM | NCI-H23 > 100 µM | OVCAR-3 > 100 µM | OVCAR-4 > 100 µM | OVCAR-5 > 100 µM | RPMI-8226 > 100 µM | SK-MEL-2 > 100 µM | SNB-19 > 100 µM | TK-10 > 100 µM | UACC-257 40.4 µM

O=C(O)/C(Cl)=C(\Cl)C(=O)Nc1ccccc1
inactive: A498 > 100 µM | ACHN > 100 µM | CAKI-1 > 100 µM | HCT-116 > 100 µM | MOLT-4 > 100 µM | Malme-3M > 100 µM | NCI-H23 > 100 µM | OVCAR-3 > 100 µM | OVCAR-4 > 100 µM | OVCAR-5 > 100 µM | RPMI-8226 > 100 µM | SK-MEL-2 > 100 µM | SNB-19 > 100 µM | TK-10 > 100 µM | UACC-257 > 100 µM

CC(C)C12Cc3c(ccc4ccccc34)OC1(C)Oc1ccc3ccccc3c1C2 (stereo not given)
inactive: ACHN > 100 µM | CAKI-1 > 100 µM | HCT-116 > 100 µM | MOLT-4 > 100 µM | Malme-3M > 100 µM | NCI-H23 > 100 µM | NCI-H522 63.7 µM | OVCAR-3 59.7 µM | OVCAR-4 > 100 µM | OVCAR-5 > 100 µM | SK-MEL-2 > 100 µM | SNB-19 > 100 µM | TK-10 > 100 µM

CC(=O)OC1=C2CC[C@@H]3C(CC[C@@]4(C)C3CC[C@@H]4OC(C)=O)[C@@]2(C)CC(C#N)C1=O (stereo not given in full)
inactive: A498 6.01 µM | ACHN 20.8 µM | HCT-116 27.6 µM | MOLT-4 23.4 µM | Malme-3M 5.58 µM | NCI-H23 27.9 µM | OVCAR-3 21.2 µM | OVCAR-4 24.4 µM | OVCAR-5 26.4 µM | RPMI-8226 12 µM | SK-MEL-2 4.32 µM | SNB-19 25.2 µM | TK-10 23.6 µM | UACC-257 29.3 µM

O=S(=O)(C1=CC(S(=O)(=O)c2ccccc2)COC1)c1ccccc1 (stereo not given)
inactive: ACHN > 100 µM | CAKI-1 > 100 µM | HCT-116 > 100 µM | MOLT-4 > 100 µM | Malme-3M > 100 µM | NCI-H23 > 100 µM | NCI-H522 > 100 µM | OVCAR-3 > 100 µM | OVCAR-4 > 100 µM | RPMI-8226 > 100 µM | SK-MEL-2 > 100 µM | SNB-19 > 100 µM | TK-10 > 100 µM | UACC-257 > 100 µM

CCOC(=O)C1C(=O)c2ccccc2CN1Cc1ccccc1 (stereo not given)
inactive: ACHN > 100 µM | CAKI-1 > 100 µM | HCT-116 > 100 µM | MOLT-4 > 100 µM | Malme-3M > 100 µM | NCI-H23 > 100 µM | NCI-H522 > 100 µM | OVCAR-3 > 100 µM | OVCAR-4 > 100 µM | OVCAR-5 > 100 µM | RPMI-8226 > 100 µM | SK-MEL-2 > 100 µM | SNB-19 > 100 µM | TK-10 > 100 µM | UACC-257 > 100 µM

COc1ccc2c3c(c(C(=O)O)oc13)C(CCC(=O)O)CC2 (stereo not given)
inactive: A498 > 100 µM | ACHN > 100 µM | CAKI-1 > 100 µM | HCT-116 > 100 µM | NCI-H23 > 100 µM | OVCAR-3 > 100 µM | OVCAR-4 > 100 µM | SNB-19 > 100 µM | TK-10 > 100 µM | UACC-257 > 100 µM

CCCCCCCCCCCCCC(=O)OC1CC(=O)OC1CO (stereo not given)
inactive: A498 77.6 µM | ACHN 46 µM | CAKI-1 81.1 µM | HCT-116 27.4 µM | MOLT-4 25.1 µM | Malme-3M > 100 µM | OVCAR-3 33.6 µM | OVCAR-4 > 100 µM | OVCAR-5 > 100 µM | RPMI-8226 36.5 µM | SK-MEL-2 > 100 µM | SNB-19 32.8 µM | TK-10 > 100 µM | UACC-257 > 100 µM

Fc1ccc(C2SCc3nc4ccccc4n32)cc1 (stereo not given)
inactive: ACHN 34.8 µM | CAKI-1 36.8 µM | HCT-116 32.4 µM | MOLT-4 32.1 µM | Malme-3M 25.8 µM | NCI-H23 28.9 µM | NCI-H522 14.1 µM | OVCAR-3 24.4 µM | OVCAR-4 36.3 µM | OVCAR-5 21.4 µM | RPMI-8226 26.4 µM | SK-MEL-2 39.6 µM | SNB-19 6.1 µM | TK-10 24.4 µM

Cc1ccc(Nc2nc(C)c(C(/C=C/c3ccc(/C=C/C(=N/NC(=O)C[n+]4ccccc4)c4sc(Nc5ccc(C)cc5[N+](=O)[O-])nc4C)cc3)=N\NC(=O)C[n+]3ccccc3)s2)c([N+](=O)[O-])c1
inactive: ACHN 82.8 µM | CAKI-1 48.6 µM | HCT-116 > 100 µM | MOLT-4 76.7 µM | Malme-3M > 100 µM | NCI-H23 > 100 µM | NCI-H522 > 100 µM | OVCAR-3 > 100 µM | OVCAR-4 > 100 µM | OVCAR-5 50.8 µM | SK-MEL-2 > 100 µM | SNB-19 > 100 µM | TK-10 51.3 µM | UACC-257 > 100 µM
